Test [1] concerns the target T1, Mitogen-activated protein kinase 8 (Homo sapiens, UniProt P45983). As to the kind of experiment: Inhibition of JNK1 at 10 uM.
Test [2] deals with T2, Interleukin-1 receptor-associated kinase 4 (Homo sapiens, UniProt Q9NWZ3).
T2 sequence (Q9NWZ3 whole entry): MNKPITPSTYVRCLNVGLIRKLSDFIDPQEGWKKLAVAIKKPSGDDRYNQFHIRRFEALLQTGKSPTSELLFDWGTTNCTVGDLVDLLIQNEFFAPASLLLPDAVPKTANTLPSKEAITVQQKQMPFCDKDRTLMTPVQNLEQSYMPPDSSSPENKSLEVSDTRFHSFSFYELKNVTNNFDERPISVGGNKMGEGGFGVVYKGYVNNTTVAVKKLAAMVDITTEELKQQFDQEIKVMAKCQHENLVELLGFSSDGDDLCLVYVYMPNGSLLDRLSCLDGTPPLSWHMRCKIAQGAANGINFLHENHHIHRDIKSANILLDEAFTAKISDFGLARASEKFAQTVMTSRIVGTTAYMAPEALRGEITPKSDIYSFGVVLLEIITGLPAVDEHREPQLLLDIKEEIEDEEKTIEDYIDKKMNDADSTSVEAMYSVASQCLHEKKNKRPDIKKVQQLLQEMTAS
As to the kind of experiment: Inhibition of IRAK4.

The target of test [3] is T3, Mitogen-activated protein kinase 9 (Homo sapiens, UniProt P45984). As to the kind of experiment: Inhibition of JNK2 at 10 uM.
Target sequence in this assay (P45984 whole entry, looked up): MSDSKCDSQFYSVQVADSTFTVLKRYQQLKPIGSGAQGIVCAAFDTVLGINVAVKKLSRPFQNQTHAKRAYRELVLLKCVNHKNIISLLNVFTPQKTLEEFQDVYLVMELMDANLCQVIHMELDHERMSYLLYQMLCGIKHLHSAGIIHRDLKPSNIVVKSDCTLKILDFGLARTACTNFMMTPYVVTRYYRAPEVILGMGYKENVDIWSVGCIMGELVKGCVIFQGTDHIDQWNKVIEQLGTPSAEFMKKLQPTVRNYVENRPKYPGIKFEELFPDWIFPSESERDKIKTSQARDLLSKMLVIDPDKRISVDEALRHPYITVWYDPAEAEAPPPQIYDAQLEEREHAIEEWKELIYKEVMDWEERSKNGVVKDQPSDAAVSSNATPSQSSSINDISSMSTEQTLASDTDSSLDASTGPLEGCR
Test [4] has as its target T1, Mitogen-activated protein kinase 8. As to the kind of experiment: Inhibition of JNK1.
The target in test [5] is T3, Mitogen-activated protein kinase 9. The experiment in a line: Inhibition of JNK2.
Target sequence in this assay (P45984 whole entry): as the sequence (P45984 whole entry, looked up) above
Test [6] deals with Mitogen-activated protein kinase 10 (Homo sapiens, UniProt P53779). The experiment in a line: Inhibition of JNK3.
Sequence of Mitogen-activated protein kinase 10 (P53779 whole entry): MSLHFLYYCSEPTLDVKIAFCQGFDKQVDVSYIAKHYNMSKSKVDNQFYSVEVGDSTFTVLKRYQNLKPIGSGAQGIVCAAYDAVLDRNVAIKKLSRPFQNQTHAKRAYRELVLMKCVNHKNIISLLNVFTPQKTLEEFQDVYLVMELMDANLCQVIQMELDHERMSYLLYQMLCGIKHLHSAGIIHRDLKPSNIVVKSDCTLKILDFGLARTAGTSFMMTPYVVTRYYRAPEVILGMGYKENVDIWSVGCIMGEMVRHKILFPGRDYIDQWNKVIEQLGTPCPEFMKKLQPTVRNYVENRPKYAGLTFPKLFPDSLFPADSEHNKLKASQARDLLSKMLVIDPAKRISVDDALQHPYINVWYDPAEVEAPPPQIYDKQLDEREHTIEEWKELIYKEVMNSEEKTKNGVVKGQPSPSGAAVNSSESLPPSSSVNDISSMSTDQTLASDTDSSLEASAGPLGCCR
Test [7] has as its target T4, Interleukin-1 receptor-associated kinase 4 (Homo sapiens) (UniProt Q9NWZ3).
T4 sequence (whole entry): T2 sequence (Q9NWZ3 whole entry)
The experiment in a line: Inhibition of IRAK4 at 10 uM.

T1 sequence (P45983 whole entry): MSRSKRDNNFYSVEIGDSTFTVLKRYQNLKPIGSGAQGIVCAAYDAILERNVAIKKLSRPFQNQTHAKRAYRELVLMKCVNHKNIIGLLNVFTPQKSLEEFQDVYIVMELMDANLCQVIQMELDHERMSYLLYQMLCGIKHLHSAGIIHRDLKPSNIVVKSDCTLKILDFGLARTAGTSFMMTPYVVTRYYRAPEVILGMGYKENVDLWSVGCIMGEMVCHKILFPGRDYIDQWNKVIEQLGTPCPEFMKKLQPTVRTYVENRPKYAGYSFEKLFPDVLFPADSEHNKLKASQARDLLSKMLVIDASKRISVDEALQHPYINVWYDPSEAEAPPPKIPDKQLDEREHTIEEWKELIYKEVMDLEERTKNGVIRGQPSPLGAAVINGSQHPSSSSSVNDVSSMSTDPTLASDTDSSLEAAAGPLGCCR

As for `CN(c1nccc(-c2cnc3ccccn23)n1)C1CCNCC1`, the inhibition stood at 33% in test [1] and 35% in test [3]. The compound further registered an IC50 in test [2] of 0.2 µM.

Turning to `c1ccn2c(-c3ccnc(NC4CCNCC4)n3)cnc2c1`, the figures for the IC50 in test [2] and in test [4] were 0.216 µM and 3.8 µM, respectively. Also, the inhibition in test [3] amounted to 59%.

Take `c1cc(NC2CCNCC2)nc(-c2cnc3ccccn23)c1`: the inhibition in test [1] is 39%; in test [3], 15%. Moreover, the IC50 in test [2] turned out to be 0.035 µM.

As to `c1cc(NC2CCNCC2)nc(-c2n[nH]c3ccccc23)c1`, the values for the half-inhibitory concentration (IC50) in test [2], in test [4] and in test [5] were 0.456 µM, 2.08 µM and 1.76 µM, respectively.

For `CNC(=O)CN1CCC(Nc2nccc(-c3cnc4ccccn34)n2)CC1`, the half-inhibitory concentration (IC50) in test [6] was 0.27 µM.

`c1cc(NC2CCNCC2)nc(-n2ccc3ccccc32)c1`: the inhibition turned out to be 0% in test [1], 30% in test [7] and 0% in test [3].

With `c1cc(NC2CCNCC2)nc(-c2cncc3ccccc23)c1`, the inhibition in test [1] is 5%; in test [3] it was 0%. Besides, the midpoint of inhibition in test [2], the IC50, lay at 1.93 µM.

As to `c1ccn2c(-c3ccnc(OC4CCNCC4)n3)cnc2c1`, the inhibition worked out at 24% in test [1] and 30% in test [3]. For the same compound, in test [2], the IC50 is 1.19 µM.

Regarding `CN(c1nccc(-c2cnc3ccccn23)n1)C1CCCCC1`, the IC50 in test [2] is 0.4 µM; in test [6], 0.003 µM.

As for `c1cc(NC2CCNCC2)nc(-n2cnc3ccccc32)c1`, the inhibition in test [1] and in test [3] was 0% in each case. Also, in test [2], half-maximal inhibition (IC50) was put at 0.07 µM.

As for `c1ccn2c(-c3ccnc(NC4CCNCC4)c3)cnc2c1`, the inhibition is 0% in test [1], 31% in test [7] and 0% in test [3].

The record behind these values is ChEMBL document CHEMBL1150395, “IRAK-4 inhibitors. Part II: a structure-based assessment of imidazo[1,2-a]pyridine binding” (Bioorg Med Chem Lett, 2008).
